Tested on: CD1 female mouse brain lipidome
Assay: Brain-region lipid levels (HPLC/MS/MS lipidomics) 2 h after single i.p. 3 mg/kg CP 55,940 vs vehicle
Assay type: in vivo
Parameters: N-arachidonoyl phenylalanine level, Mean / N-stearoyl tryptophan level, Mean / N-stearoyl proline level, Mean / N-stearoyl leucine level, Mean / N-stearoyl phenylalanine level, Mean / N-stearoyl serine level, Mean / N-stearoyl methionine level, Mean: unit: moles per gram
Protocol: The Bloomington Institutional Animal Care and Use Committee of Indiana University reviewed and approved the animal procedures. Female mice from the CD1 strain were utilized to match our study examining THC’s effects on the brain lipidome ([Leishman et al., 2018]). Mice were given a single i.p. injection of either 3 mg/kg CP or 1:1:18 cremophor:ethanol:saline vehicle (please refer to the section “3 mg/kg CP Is Relevant for Synthetic Cannabinoid Abuse and Has Stronger Effects on the Female Mouse Brain Lipidome During Adolescence” for a justification of dose and use of female mice). Three different age groups were given injections: PND 35 and PND 50 adolescents, and adult mice (PND 113). At least eight mice in each age group received CP and at least eight received vehicle. Matching the THC study time course ([Leishman et al., 2018]), mice were sacrificed via rapid decapitation 2 h after injection. Brains were immediately removed and flash-frozen in liquid nitrogen, and then stored at -80°C until dissections were performed. Brains were dissected on an ice-cold dissection plate into the following regions: STR, HIPP, CER, THAL, CTX, HYP, MID, and STEM. These abbreviations for these brain areas will be used exclusively when discussing the results generated by these specific dissections. Each dissected area was immediately placed in liquid nitrogen and then stored at -80°C until used for lipid extraction.
Tissue extracts were performed as previously described ([Bradshaw et al., 2006]; [Stuart et al., 2013]; [Raboune et al., 2014]; [Leishman et al., 2016a],[b], [2017], [2018]). First, samples were shock frozen in liquid nitrogen, weighed, and transferred to a centrifuge tube. The mass of the largest sample was multiplied by 50 to determine how many milliliters of HPLC-grade methanol (Fisher, Fair Lawn, NJ, United States) to add. Then, samples were spiked with 500 pmol deuterium-labeled NAGly (d8NAGly; Cayman Chemical, Ann Arbor, MI, United States). Samples were placed on ice in darkness for 2 h then individually homogenized and centrifuged at 19,000 × g for 20 min at 20°C. Supernatants were diluted with HPLC water (purified in house) to make a solution of 75% water, 25% supernatant. Lipids were partially purified on C18 solid phase extraction columns (Agilent, Palo Alto, CA, United States). A series of four elutions with 1.5 mL of 60%, 75%, 85%, and 100% methanol were collected ([Stuart et al., 2013]; [Leishman et al., 2016a],[b], [2018]).
As previously described ([Bradshaw et al., 2006]; [Tan et al., 2006]; [Smoum et al., 2010]; [Stuart et al., 2013]; [Tortoriello et al., 2013]; [Raboune et al., 2014]; [Leishman et al., 2016a],[b], [2017], [2018]), samples were analyzed using an Applied Biosystems API 3000 triple quadrupole mass spectrometer with electrospray ionization (Foster City, CA, United States). Using an Agilent XDB-C18 reversed phase analytical column and optimized mobile phase gradients, 20 μL from each elution were chromatographed. Two Shimadzu 10ADvp pumps (Columbia, MD, United States) provided the pressure for gradient elution. Mobile phase A: 20% methanol, 80% water (v/v) and 1 mM ammonium acetate (Sigma, St. Louis, MO, United States). Mobile phase B: 100% methanol, 1 mM ammonium acetate. Every method run began with 0% mobile phase B, reached 100% mobile phase B flowing at 0.2 mL/min, and gradually returned to 0% mobile phase B.
This screening library will be referred to as the lipidome when discussing data from this study. HPLC/MS/MS data were analyzed using Analyst software (Applied Biosystems) ([Bradshaw et al., 2006]; [Tan et al., 2006]; [Stuart et al., 2013]; [Tortoriello et al., 2013]; [Raboune et al., 2014]; [Leishman et al., 2016a],[b], [2017], [2018]). Chromatograms (Supplementary Figure 3) were generated by determining the retention time of analytes from the analytical column with a [M-1] or [M+1] parent peak and a fragmentation peak corresponding to the programmed values. […]

[1] = midbrain, PND 35 WT adolescent female mice, 3 mg/kg
[2] = striatum, PND 50, 3mg/kg CP 55,940 vs Veh
[3] = striatum, PND 50 female mice, 3mg/kg CP 55,940, mean

CCCCCCC(C)(C)c1ccc([C@@H]2C[C@H](O)CC[C@H]2CCCO)c(O)c1 [CP 55,940]
N-stearoyl GABA level, Mean [1]: 7.82E-12 | N-stearoyl alanine level, Mean [1]: 9.99E-12 | N-stearoyl ethanolamine level, Mean [1]: 1.75E-11 | N-stearoyl glycine level, Mean [1]: 2.16E-11 | N-stearoyl leucine level, Mean [1]: 1.07E-12 | N-stearoyl methionine level, Mean [1]: 2.71E-12 | N-stearoyl phenylalanine level, Mean [1]: 2.34E-12 | N-stearoyl proline level, Mean [1]: 3.86E-13 | N-stearoyl serine level, Mean [1]: 3.54E-11 | N-stearoyl tryptophan level, Mean [1]: 7E-13 | N-stearoyl tyrosine level, Mean [1]: 2.3E-13 | Oleic acid level, Mean [1]: 1.55E-09 | PGE2 level, Mean [1]: 5.98E-10 | PhosphoLEA level, Mean [1]: 1.57E-11 | 2-arachidonoyl glycerol, Direction (relative to Veh) [2]: ↓ | 2-arachidonoyl glycerol, Magnitude (x Veh level) [2]: 0.86 x Veh level | 2-linoleoyl glycerol Direction (relative to Veh) [2]: ↓ | 2-linoleoyl glycerol Magnitude (x Veh level) [2]: 0.77 x Veh level | Arachidonic acid, Direction (relative to Veh) [2]: ↓ | Arachidonic acid, Magnitude (x Veh level) [2]: 0.81 x Veh level | Linoleic acid, Direction (relative to Veh) [2]: ↓ | Linoleic acid, Magnitude (x Veh level) [2]: 0.78 x Veh level | N-arachidonoyl GABA Direction (relative to Veh) [2]: ↓ | N-arachidonoyl GABA Magnitude (x Veh level) [2]: 0.71 x Veh level | N-arachidonoyl glycine Direction (relative to Veh) [2]: ↓ | N-arachidonoyl glycine Magnitude (x Veh level) [2]: 0.65 x Veh level | N-arachidonoyl phenylalanine, Direction (relative to Veh) [2]: ↓ | N-arachidonoyl phenylalanine, Magnitude (x Veh level) [2]: 0.78 x Veh level | N-arachidonoyl taurine Direction (relative to Veh) [2]: ↓ | N-arachidonoyl taurine Magnitude (x Veh level) [2]: 0.91 x Veh level | N-docosahexaenoyl GABA Direction (relative to Veh) [2]: ↓ | N-docosahexaenoyl GABA Magnitude (x Veh level) [2]: 0.81 x Veh level | N-docosahexaenoyl glycine Direction (relative to Veh) [2]: ↓ | N-docosahexaenoyl glycine Magnitude (x Veh level) [2]: 0.51 x Veh level | N-palmitoyl leucine, Direction (relative to Veh) [2]: ↑ | N-palmitoyl leucine, Magnitude (x Veh level) [2]: 1.33 x Veh level | N-palmitoyl tyrosine Magnitude (x Veh level) [2]: 1.35 x Veh level | N-palmitoyl tyrosine, Direction (relative to Veh) [2]: ↑ | N-palmitoyl valine Direction (relative to Veh) [2]: ↑ | N-palmitoyl valine Magnitude (x Veh level) [2]: 1.72 x Veh level | Oleic acid, Direction (relative to Veh) [2]: ↓ | Oleic acid, Magnitude (x Veh level) [2]: 0.79 x Veh level | PGF2α Direction (relative to Veh) [2]: ↑ | PGF2α Magnitude (x Veh level) [2]: 1.16 x Veh level | 2-arachidonoyl-sn-glycerol level [3]: 1.35E-10 | 2-linoleoyl-sn-glycerol level [3]: 8.22E-11 | 2-oleoyl-sn-glycerol level [3]: 9.26E-10 | 2-palmitoyl-sn-glycerol level [3]: 1.09E-09 | 11-OH-THC level [3]: BDL | 11-nor-9-carboxyTHC level [3]: BDL | Arachidonic acid level [3]: 2.35E-10 | Cannabidiol level [3]: BDL | Linoleic acid level [3]: 1.59E-10 | N-arachidonoyl GABA level [3]: 4.29E-12 | N-arachidonoyl dopamine level [3]: BDL | N-arachidonoyl ethanolamine level [3]: 2.93E-11 | N-arachidonoyl glycine level [3]: 5.51E-13 | N-arachidonoyl phenylalanine level [3]: 3.83E-13 | N-arachidonoyl proline level [3]: BDL | N-arachidonoyl taurine level [3]: 2.53E-11 | N-arachidonoyl tryptophan level [3]: BDL | N-docosahexaenoyl GABA level [3]: 4.96E-13 | N-docosahexaenoyl ethanolamine level [3]: 3.09E-11 | N-docosahexaenoyl glycine level [3]: 1.15E-13 | N-docosahexaenoyl leucine level [3]: 1.19E-13 | N-docosahexaenoyl methionine level [3]: BDL | N-docosahexaenoyl phenylalanine level [3]: 4.38E-13 | N-docosahexaenoyl proline level [3]: BDL | N-docosahexaenoyl tryptophan level [3]: BDL | N-docosahexaenoyl valine level [3]: BDL | N-linoleoyl alanine level [3]: 1.36E-13 | N-linoleoyl ethanolamine level [3]: 5.34E-11 | N-linoleoyl glycine level [3]: 6.89E-14 | N-linoleoyl leucine level [3]: 4.43E-14 | N-linoleoyl proline level [3]: BDL | N-linoleoyl serine level [3]: 1.09E-10 | N-linoleoyl tryptophan level [3]: BDL | N-linoleoyl tyrosine level [3]: BDL | N-nervonoyl valine level [3]: BDL | N-oleoyl GABA level [3]: 1.25E-12 | N-oleoyl alanine level [3]: 1.2E-12 | N-oleoyl dopamine level [3]: BDL | N-oleoyl ethanolamine level [3]: 6.94E-11 | N-oleoyl glycine level [3]: 1.27E-12 | N-oleoyl leucine level [3]: 4.16E-13 | N-oleoyl methionine level [3]: 3.74E-13 | N-oleoyl phenylalanine level [3]: 5.89E-13 | N-oleoyl proline level [3]: BDL | N-oleoyl serine level [3]: 2.17E-10 | N-oleoyl tryptophan level [3]: BDL | N-oleoyl tyrosine level [3]: 1.31E-13 | N-palmitoyl GABA level [3]: 3.11E-12 | N-palmitoyl alanine level [3]: 4.63E-12 | N-palmitoyl ethanolamine level [3]: 6.26E-11 | N-palmitoyl glycine level [3]: 5.26E-12 | N-palmitoyl leucine level [3]: 1.06E-12 | N-palmitoyl methionine level [3]: 1.12E-12 | N-palmitoyl phenylalanine level [3]: 9.78E-13 | N-palmitoyl proline level [3]: BDL | N-palmitoyl serine level [3]: 2.18E-11 | N-palmitoyl tryptophan level [3]: BDL | N-palmitoyl tyrosine level [3]: 4.79E-13

Source: paper PMC6277767, “Broad and Region-Specific Impacts of the Synthetic Cannabinoid CP 55,940 in Adolescent and Adult Female Mouse Brains” (Frontiers in Molecular Neuroscience, 2018)
